{"source": "paper PMC8745332", "about": "“Synthesis, Molecular Docking and Biological Characterization of Pyrazine Linked 2-Aminobenzamides as New Class I Selective Histone Deacetylase (HDAC) Inhibitors with Anti-Leukemic Activity” (International Journal of Molecular Sciences, 2021)", "test_system": "HEL cells", "assay": "Cytotoxicity/apoptosis in HEL cells expressing JAK2V617F, annexin V-FITC/PI flow cytometry", "assay_type": "cell-based, human", "protocol": "(B) Cells were stained with annexin V-FITC/PI and analyzed via flow cytometry. […] IC50 values were determined for 19f. Results represent three independent experiments.\nThis erythroleukemia cell model carries a mutation in Janus kinase-2 (JAK2V617F) and HDACi are considered as therapeutic options to control the transformation of this disease into AML [53].\nAll leukemic cells were kept in RPMI-1640 medium supplemented with 10% FBS and 1%penicillin/streptomycin (Sigma-Aldrich, Taufkirchen, Germany) under standard culture conditions at 37 °C and a 5% CO2 humidified atmosphere. Cells were authenticated as mentioned by us.", "data": [{"compound": "Nc1ccccc1NC(=O)c1cnc(N2CCN(Cc3c[nH]c4ccccc34)CC2)cn1", "note": "[19f, 5-(4-((1H-indol-3-yl)methyl)piperazin-1-yl)-N-(2-aminophenyl)pyrazine-2-carboxamide]", "values": [{"measurement": "apoptosis in HEL cell cultures", "setting": "0.5 µM, 48 h", "result": 26, "unit": "%"}, {"measurement": "IC50", "setting": "Homo sapiens, 0.25 µM to 5 µM, 24 h, read-out: IC50 for toxic effects on HEL cells", "result": 925, "unit": "nM"}]}]}
